These are literature values, as cited in US10293050B2, “Macrolide dosage forms” (Micell Technologies, Inc., priority 2010, dated 2019).

Experiment in series [1]: not given
This is another data set of the same source.

Experiment in series [2]: not given
This is another data set of the same source.

Where only a bound is given, the exact number is not on record here.

Turning to `CO[C@H]1C[C@@H]2CC[C@@H](C)[C@@](O)(O2)C(=O)C(=O)N2CCCC[C@H]2C(=O)O[C@H]([C@H](C)C[C@@H]2CC[C@@H](O)[C@H](OC)C2)CC(=O)[C@H](C)/C=C(\C)[C@@H](O)[C@@H](OC)C(=O)[C@H](C)C[C@H](C)/C=C/C=C/C=C/1C` [Rapamycin], where the note is “Rapamune oral tablets or solution”, the bioavailability (in general, dose-corrected exposure relative to a reference, in per cent) was under 14%. Moreover, for the setting “in vivo”, the hepatic biotransformation entry was “extensive hepatic biotransformation”. Also, the blood concentrations (once daily oral dosing, immunosuppressive dose 2 or 5 mg daily) is 6 to 50 ng/mL. In series [1], the aqueous solubility entry was “poor aqueous solubility”. In addition, the protein binding entry in series [2] is listed as “high protein binding”.
